From patent US11123341B2, “Butyrylcholinesterase inhibitors for treatment of opioid use disorder” (priority 2019, dated 2021)

How the values were obtained:
BChE = BChE (Homo sapiens, UniProt P06276); details: read-out: IC50 for BChE; cited from earlier work
[1] = test system: heroin-induced hyperactivity; test: Locomotor activity test of heroin-induced hyperactivity; type: in vivo, mice; details: 10 mg/kg IV, 10 min prior to heroin 2.5 mg/kg IP; n=8
Experimental: (§1) All mice were allowed ad libitum access to food and water and maintained on a 12 h light/12 h dark cycle, with the lights on at 8:00 a.m. at a room temperature of 21-22° C. Experiments were performed in a same colony room in accordance with the Guide for the Care and Use of Laboratory Animals as adopted and promulgated by the National Institutes of Health. The animal protocol was approved by the IACUC (Institutional Animal Care and Use Committee) at the University of Kentucky.

heroin-induced lethality = test: Protection of mice against acute toxicity (lethality) of a lethal dose of heroin; type: in vivo; details: 10 min before heroin 25 mg/kg IV, n=6
Experimental: as §1
Heroin-induced acute toxicity was characterized in this study by the occurrence of death. […] Following the heroin administration, mice were immediately placed in containers for observation. The presence or absence of death was recorded for 6 hours following heroin administration.
(§2) Heroin-induced acute toxicity was characterized by the lethality (occurrence of death). For the protection experiments, a single dose of ethopropazine was administrated (IV) prior to administration of a lethal dose (LD100) of heroin (e.g. 25 mg/kg, IV). At 10 min after IV administration of ethopropazine or saline (negative control), the mice were given a lethal dose (LD100) of heroin. The protection experiments were performed under various dose conditions (n=6 for each scenario).

[2] = 1 mg/kg IV
Experimental: as §2

Chain of BChE (P06276 29-602): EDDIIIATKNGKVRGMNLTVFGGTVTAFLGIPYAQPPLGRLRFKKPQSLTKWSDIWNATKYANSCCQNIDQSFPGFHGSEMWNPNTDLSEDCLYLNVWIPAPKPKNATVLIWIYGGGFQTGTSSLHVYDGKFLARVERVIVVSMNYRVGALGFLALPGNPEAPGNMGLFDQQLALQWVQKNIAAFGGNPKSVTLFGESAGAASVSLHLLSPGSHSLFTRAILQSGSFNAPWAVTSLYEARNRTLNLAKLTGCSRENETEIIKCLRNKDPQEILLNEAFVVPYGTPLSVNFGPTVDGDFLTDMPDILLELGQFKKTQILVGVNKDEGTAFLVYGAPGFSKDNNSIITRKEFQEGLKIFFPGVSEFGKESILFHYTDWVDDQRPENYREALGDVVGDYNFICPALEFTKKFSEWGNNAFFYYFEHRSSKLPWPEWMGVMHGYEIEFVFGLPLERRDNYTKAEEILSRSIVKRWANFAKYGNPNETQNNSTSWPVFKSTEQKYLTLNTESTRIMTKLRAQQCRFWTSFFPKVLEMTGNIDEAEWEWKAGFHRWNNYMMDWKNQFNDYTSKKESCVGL

Row | SMILES | IC50 (BChE) [nM] | effect on heroin-induced hyperactivity (total distance traveled) [1] | protection against heroin-induced lethality (heroin-induced lethality; ethopropazine 1 mg/kg IV) | protection against heroin-induced lethality (heroin-induced lethality; ethopropazine 10 mg/kg IV) | adverse effect observed in mice [2] | protection against heroin-induced lethality (heroin-induced lethality; naltrexone 0.3 mg/kg IV)
1 | CCN(CC)C(C)CN1c2ccccc2Sc2ccccc21 (stereo not drawn) [ethopropazine] | 210 to 300 | significantly attenuated heroin-induced hyperactivity | partial protection | protected all mice |  | 
2 | O=C1CC[C@@]2(O)[C@H]3Cc4ccc(O)c5c4[C@@]2(CCN3CC2CC2)[C@H]1O5 [naltrexone] |  |  |  |  | not able to stand and could hardly move at all | partial protection
